Measurements as given in patent publication US9034899B2, “Aryl, heteroaryl, and heterocycle substituted tetrahydroisoquinolines and use thereof” (Albany Molecular Research, Inc., priority 2009, dated 2015).

Experiments:
[1] = tested on: SERT; assay: Occupancy assay, ex vivo binding in brain tissue, SERT
Description: (§1) The general procedure for brain tissue collection and transporter occupancy assessment is briefly described as follows. Mice were sacrificed by asphyxiation in CO2, rats by decapitation and dogs by IV injection of euthanasia solution. For mice and rats, after the brains were removed from the skull, the forebrain tissue (removal of the brainstem and cerebellum) was used for SERT, NET, and DAT occupancy assessment. In dogs, the striatum was dissected for DAT occupancy and the remaining forebrain tissue (without the striatum, brainstem, and cerebellum) was used for SERT and NET occupancy assessment. The brain tissues were frozen in chilled isopentane and stored at −80° C. until homogenization.
(§2) The brain tissues were thawed and then homogenized using a polytron homogenizer (Kinematica). Sample aliquots were frozen immediately and stored at −80° C. Protein content was measured for each sample using a Coomassie protein assay kit (Pierce).
(§3) On the day of ex vivo binding for occupancy assessment, frozen sample aliquots were thawed and needle homogenized, and 100 μg of the tissue was incubated for SERT, NET, and DAT binding under assay conditions summarized in Table 2. After incubation, the reactions were terminated by the addition of ice-cold assay buffer and rapid filtration through a Brandel Cell Harvester using FPXLR-196 filters. The filters were washed twice with ice-cold incubation buffer, punched into a clear plate prior to the addition of 200 ul scintillation fluid per well. Radioligand was measured using a Wallac Microbeta liquid scintillation counter.
The specific binding was calculated by subtracting the value of the non-specific binding from that of the total binding in each sample. The percent occupancy was calculated as (1−specific binding in drug treated/specific binding in vehicle treated)×100%. For estimation of in vivo occupancy EC50 (total plasma concentration of compound producing 50% occupancy), plots of occupancy values versus plasma concentrations were fitted to a one-site binding model using nonlinear regression according to the following equation: % Occupancy=Emax*C/(EC50+C) where Emax is the maximal specific binding, C is the drug concentration, and EC50 is the total plasma concentration required for 50% binding site occupancy. Nonlinear regression was performed using GraphPad Prism version 3.00 (GraphPad Software, San Diego, Calif.).

[2] = tested on: NET; assay: Occupancy assay, ex vivo binding in brain tissue, NET
Description: as §1, §2
as §3, with “After incubation, the reactions were terminated by the addition of ice-cold assay buffer and rapid filtration through a Brandel Cell Harvester using FPXLR-196 filters.” left out
(§4) The specific binding was calculated by subtracting the value of the non-specific binding from that of the total binding in each sample. The percent occupancy was calculated as (1−specific binding in drug treated/specific binding in vehicle treated)×100%. […] Nonlinear regression was performed using GraphPad Prism version 3.00 (GraphPad Software, San Diego, Calif.).

[3] = tested on: DAT; assay: Occupancy assay, ex vivo binding in brain tissue, DAT
Description: as §1, §2
as §3, with “After incubation, the reactions were terminated by the addition of ice-cold assay buffer and rapid filtration through a Brandel Cell Harvester using FPXLR-196 filters.” left out
as §4

[4] = biological target: hSERT (Homo sapiens (Human), UniProt P31645); assay: SERT radioligand binding assay ([125I]RTI-55, HEK-293 membranes); conditions: (+)-enantiomers; read-out: SERT IC50
Description: The medium was removed from the flasks and the cells rinsed with HBSS without Ca and without Mg. The cells were then incubated for 5-10 minutes in 10 mM Tris-Cl, pH 7.5, 5 mM EDTA before the cells were lifted with a combination of pipetting and scraping, as needed. The cell suspension was collected into centrifuge bottles and homogenized for 30 seconds with a Polytron homogenizer. The suspension was centrifuged for 30 minutes at 32,000×g, 4° C. The supernatant was decanted and the pellet resuspended and homogenized in 50 mM Tris-Cl, pH 7.5, 1 mM EDTA for 10 seconds. The suspension was then centrifuged again for 30 minutes at 32,000×g, 4° C. The supernatant was decanted and the pellet resuspended in 50 mM Tris-Cl, pH 7.5, 1 mM EDTA and briefly homogenized. A Bradford assay (Bio-rad) was performed and the membrane preparation diluted to 2 mg/ml with 50 mM Tris-Cl, pH 7.5, 1 mM EDTA. Aliquots were prepared, and then frozen and stored at −80° C.
Compounds were dissolved in 100% DMSO at a concentration 100 times the desired highest assay concentration, serially diluted 1:3 in 100% DMSO, and 0.4 μl/well of each solution was dispensed to a Nunc polypropylene, round bottom, 384-well plate. […] The contents of the assay plate were then transferred to a Millipore MultiscreenHTS GF/B filter plate which was pretreated with 0.5% PEI for at least one hour. The plate was vacuum filtered and washed with 7 washes of 100 μl/well 50 mM Tris-Cl, pH 7.5, 120 mM NaCl, 5 mM KCl chilled to 4° C. The filtration and washing were completed in less than 90 seconds. The plates were air-dried overnight, 12 μl/well of MicroScint scintillation fluid added, and the plates counted in a Trilux.
Each plate was run in triplicate, and the concentration response curve thus generated was fit using the four-parameter dose response equation, Y=Bottom+(Top-Bottom)/(1+10^((LogIC50−X)*HillSlope)) in order to determine the IC50 value for each compound. The radioligand concentration chosen for each assay corresponds to the Kd concentration determined through saturation binding analysis for each assay.

Chain of hSERT (P31645 whole entry): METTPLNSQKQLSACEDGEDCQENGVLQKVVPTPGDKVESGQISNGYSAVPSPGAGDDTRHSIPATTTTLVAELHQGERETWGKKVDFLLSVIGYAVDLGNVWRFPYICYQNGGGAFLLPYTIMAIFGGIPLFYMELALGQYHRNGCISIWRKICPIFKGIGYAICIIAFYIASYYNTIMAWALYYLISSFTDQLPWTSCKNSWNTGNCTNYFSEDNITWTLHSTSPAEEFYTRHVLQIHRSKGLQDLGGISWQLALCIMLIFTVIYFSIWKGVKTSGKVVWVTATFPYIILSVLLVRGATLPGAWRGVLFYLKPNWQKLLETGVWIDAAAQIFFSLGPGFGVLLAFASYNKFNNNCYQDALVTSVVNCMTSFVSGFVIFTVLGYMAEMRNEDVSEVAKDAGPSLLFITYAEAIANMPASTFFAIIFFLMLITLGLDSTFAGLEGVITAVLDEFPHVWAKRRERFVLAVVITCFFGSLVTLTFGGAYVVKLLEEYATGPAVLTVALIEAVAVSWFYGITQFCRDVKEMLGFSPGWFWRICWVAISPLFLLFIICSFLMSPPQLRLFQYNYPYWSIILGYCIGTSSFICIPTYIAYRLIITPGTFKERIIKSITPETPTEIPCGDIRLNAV

Row | Structure (SMILES) | SERT Occupancy % ([1]; dose 1 mg/kg, time point 1 h) | NET Occupancy % ([2]; dose 1 mg/kg, time point 1 h) | DAT Occupancy % ([3]; dose 1 mg/kg, time point 1 h) | IC50 [4] | SERT Occupancy % ([1]; dose 1 mg/kg, time point 3 h) | NET Occupancy % ([2]; dose 1 mg/kg, time point 3 h) | DAT Occupancy % ([3]; dose 1 mg/kg, time point 3 h) | SERT Occupancy % ([1]; dose 3 mg/kg, time point 3 h) | NET Occupancy % ([2]; dose 3 mg/kg, time point 3 h) | DAT Occupancy % ([3]; dose 3 mg/kg, time point 3 h)
1 | CC1(C)NCC(c2ccc(Cl)c(Cl)c2)c2ccc(-c3cccnn3)cc21 (single isomer, unassigned) [Example 9, 4-(3,4-dichlorophenyl)-1,1-dimethyl-7-(pyridazin-3-yl)-1,2,3,4-tetrahydroisoquinoline] | 60% | 20% | 71% | 4.8 nM | – | – | – | – | – | –
2 | FC(F)Oc1ccc(-c2ccc3c(c2)CNCC3c2ccc(Cl)c(Cl)c2)nn1 (stereo not shown) [Example 12, 4-(3,4-dichlorophenyl)-7-(6-(difluoromethoxy)pyridazin-3-yl)-1,2,3,4-tetrahydroisoquinoline] | – | – | – | 3.6 nM | 82% | 46% | 15% | – | – | –
3 | CC1(C)NCC(c2ccc(Cl)c(Cl)c2)c2ccc(-c3ccc(N)nn3)cc21 (stereo not shown) [Example 13, 4-(3,4-dichlorophenyl)-7-(6-aminopyridazin-3-yl)-1,1-dimethyl-1,2,3,4-tetrahydroisoquinoline] | – | – | – | 2.3 nM | – | – | – | 55% | 5% | 53%
4 | Cc1noc(C)c1-c1ccc2c(c1)CNCC2c1ccc(Cl)c(Cl)c1 (stereo not shown) [Example 25, 4-(4-(3,4-dichlorophenyl)-1,2,3,4-tetrahydroisoquinolin-7-yl)-3,5-dimethylisoxazole] | – | – | – | 4.9 nM | 50% | 0% | 0% | – | – | –
5 | Clc1ccc(C2CNCc3cc(-c4cccnn4)ccc32)cc1Cl (stereo not shown) [Example 33, 4-(3,4-dichlorophenyl)-7-(pyridazin-3-yl)-1,2,3,4-tetrahydroisoquinoline] | 49% | 3% | 8% | 6.2 nM | – | – | – | – | – | –
6 | Nc1ccc(-c2ccc3c(c2)CNCC3c2ccc(Cl)c(Cl)c2)nn1 (stereo not shown) [Example 34, 6-(4-(3,4-dichlorophenyl)-1,2,3,4-tetrahydroisoquinolin-7-yl)pyridazin-3-amine] | 10% | 11% | 0% | 1.8 nM | – | – | – | – | – | –
7 | CC1(C)NCC(c2ccc(Cl)c(Cl)c2)c2ccc(-c3ccc4ncnn4c3)cc21 (stereo not shown) [Example 40, 4-(3,4-dichlorophenyl)-7-([1,2,4]triazolo[1,5-a]pyridin-6-yl)-1,1-dimethyl-1,2,3,4-tetrahydroisoquinoline] | – | – | – | 4.2 nM | – | – | – | 74% | 1% | 78%
